Reference: US20040009464A1, “Methods for identifying compounds for inhibition of neoplastic lesions, and pharmacetical compositions containing such compounds” (priority 1998, published 2004)
Like-named read-outs stand apart in the source and are kept apart here. One block for each molecule: values may come before it.

How the values were obtained:
[1] = molecular target: T1, cGMP binding sites of GST-cGB-PDE5 fusion protein (Homo sapiens, UniProt O76074); test: cGMP binding assay with GST-cGB-PDE5 fusion protein
T1 construct: made in house; host or cells: E. coli BL21 (DE3)

[2] = test system: premalignant lesions in mouse mammary gland organ culture; test: Mammary gland organ culture model; format: cell-based; conditions: FIG. 17
Excerpt: Test compounds identified by the above methods can be tested for antineoplastic activity by their ability to inhibit the incidence of pre-neoplastic lesions in a mammary gland organ culture system. This mouse mammary gland organ culture technique has been successfully used by other investigators to study the effects of known antineoplastic agents such as certain NSAIDs, retinoids, tamoxifen, selenium, and certain natural products, and is useful for validation of the screening method of the present invention.
For example, female BALB/c mice can be treated with a combination of estradiol and progesterone daily, in order to prime the glands to be responsive to hormones in vitro. The animals are sacrificed, and thoracic mammary glands are excised aseptically and incubated for ten days in growth media supplemented with insulin, prolactin, hydrocortisone, and aldosterone. DMBA (7,12-dimethylbenz(a)anthracene) is added to medium to induce the formation of premalignant lesions Fully developed glands are then deprived of prolactin, hydrocortisone, and aldosterone, resulting in the regression of the glands but not the pre-malignant lesions.
The test compound is dissolved in DMSO and added to the culture media for the duration of the culture period. At the end of the culture period, the glands are fixed in 10% formalin, stained with alum camine, and mounted on glass slides. The incidence of forming mammary lesions is the ratio of the glands with mammary lesions to […]. The incidence of mammary lesions in test compound treated glands is compared with that of the untreated glands.
The extent of the area occupied by the mammary lesions can be quantitated by projecting an image of the gland onto a digitation pad. The area covered by the gland is traced on the pad and considered as 100% of the area. The space covered by each of the non-regressed structures is also outlined on the digitization pad and quantitated by the computer.
Mammary gland organ culture experiment were performed as previously described (Mehta and Moon, Cancer Research, 46: 5832-5835, 1986). […]

[3] = test system: novel cGMP-specific PDE peak B from SW480; test: cGMP hydrolysis by novel cGMP-specific PDE peak B (Section IA) from SW480 cells; format: biochemical, human; conditions: for Ratio (IC50 Peak A/Peak B): cGMP hydrolysis
[4] = test system: A-427, Lung; test: Growth inhibition, SRB assay, A-427; format: cell-based; conditions: Homo sapiens
Excerpt: (§1) A compound's ability to inhibit tumor cell growth can be measured using the HT-29 human colon carcinoma cell line obtained from ATCC. HT-29 cells have previously been characterized as a relevant colon tumor cell culture model (Fogh, J., and Trempe, G. In. Human Tumor Cells in Vitro, J. Fogh (eds.), Plenum Press, New York, pp. 115-159, 1975). HT-29 cells are maintained in RPMI media supplemented with 5% fetal bovine calf serum (Gemini Bioproducts, Inc., Carlsbad, Calif.) and 2 mm glutamine, and 1% antibiotic-antimycotic in a humidified atmosphere of 95% air and 5% CO2 at 37° C. Briefly, HT-29 cells are plated at a density of 500 cells/well in 96 well microtiter plates and incubated for 24 hours at 37° C. prior to the addition of compound. […] After six days in culture, the cells are fixed by the addition of cold trichloroacetic acid to a final concentration of 10% and protein levels are measured using the sulforhodamine B (SRB) colorimetric protein stain assay as previously described by Skehan, P., Storeng, R., Scudiero, D., Monks, A., McMahon, J., Vistica, D., Warren, J. T., Bokesch, H., Kenney, S., and Boyd, M. R., “New Colorimetric Assay For Anticancer-Drug Screening,” J. Natl Cancer Inst. […]
(§2) To show the effectiveness of this screening method on various forms of neoplasia, compounds were tested on numerous cell lines. […] The IC50 values were determined by the SRB assay. […]

[5] = test system: HCT116, Colon; test: Growth inhibition, SRB assay, HCT116; format: cell-based; conditions: Homo sapiens, HCT-116
Excerpt: as §1, §2

[6] = test system: cGMP PDE purified from human colon HT-29 cultured tumor cells; test: cGMP PDE inhibition assay; format: biochemical; set-up: PDE Inhibition: key to the marks not given beside the values
[7] = test system: SW-480 colon adenocarcinoma cells; test: Apoptosis fold induction protocol (DNA fragmentation ELISA); format: cell-based, human; set-up: key to the marks not given beside the values; conditions: qualitative activity profile
[8] = test system: HT-29 cells; test: Cyclic nucleotide (cGMP, cAMP) levels in HT-29 cells by radioimmunoassay; format: cell-based, human; conditions: for effect on cAMP levels: HT-29 cells
[9] = molecular target: T2, purified cyclooxygenase (Type 1) from ram seminal vesicles (Ovis aries, UniProt P05979); test: COX inhibition assay with purified cyclooxygenase; set-up: COX Inhibition: key to the marks not given beside the values; conditions: for COX-I inhibition: FIG. 5
T2 sequence (P05979 25-600): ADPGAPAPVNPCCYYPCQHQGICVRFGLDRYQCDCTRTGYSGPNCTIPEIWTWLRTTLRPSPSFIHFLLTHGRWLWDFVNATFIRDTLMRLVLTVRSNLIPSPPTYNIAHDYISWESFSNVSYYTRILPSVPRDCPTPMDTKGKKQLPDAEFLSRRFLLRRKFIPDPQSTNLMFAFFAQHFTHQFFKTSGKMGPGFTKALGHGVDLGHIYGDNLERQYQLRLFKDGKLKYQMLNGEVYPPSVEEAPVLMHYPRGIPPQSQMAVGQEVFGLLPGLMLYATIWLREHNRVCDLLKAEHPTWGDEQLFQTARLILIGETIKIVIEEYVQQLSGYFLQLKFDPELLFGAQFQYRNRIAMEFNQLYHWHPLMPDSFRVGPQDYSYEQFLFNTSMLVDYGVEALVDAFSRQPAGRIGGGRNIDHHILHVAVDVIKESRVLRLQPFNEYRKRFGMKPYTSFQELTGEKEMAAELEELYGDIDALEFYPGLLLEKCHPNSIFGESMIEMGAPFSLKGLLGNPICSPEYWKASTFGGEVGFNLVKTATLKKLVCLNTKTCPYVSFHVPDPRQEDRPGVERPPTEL

[10] = test system: PDE4 purified from human colon HT-29 cultured tumor cells; test: PDE4 inhibition assay; format: biochemical; conditions: PDE4 from HT-29 cells
Protocol: (Thompson, W. J., Teraski, W. L., Epstein, P. M., Strada, S. J., Advances in Cyclic Nucleotide Research, 10:69-92, 1979, which is incorporated herein by reference). […] The mixture is incubated at 30° C. for 10 minutes with isolated PDE of this invention. Reactions are terminated, for example, by boiling the reaction mixture for 75 seconds. After cooling on ice, 100 μl of 0.5 mg/mL snake venom (O. Hannah venom available from Sigma) is added and incubated for 10 minutes at 30° C. This reaction is then terminated by the addition of an alcohol, e.g. 1 mL of 100% methanol. Assay samples are applied to 1 mL Dowex 1-X8 column; and washed with 1 mL of 100% methanol. The amount of radioactivity in the breakthrough and the wash from the column is combined and measured with a scintillation counter. The degree of phosphodiesterase inhibition is determined by calculating the amount of radioactivity in drug-treated reactions and comparing against a control sample (a reaction mixture lacking the tested compound but with drug solvent).

[11] = molecular target: T3, PDE peak A (PDE5) from SW480 (Homo sapiens, UniProt O76074); test: cGMP hydrolysis by PDE peak A (PDE5) isolated from SW480 cells; format: biochemical
T3 construct: The novel PDE activity was first found in SW480 colon cancer cell lines; endogenous in cells; host or cells: SW480 colon cancer cells; DEAE-Trisacryl M fraction (peak A)

- competition with cGMP (2 μM) in binding of GST-cGB-PDE5 ([1]; FIG. 24): did not compete
SMILES: CCCCOC1C2OP(=O)(O)OCC2OC1n1cnc2c(N)ncnc21 (centres unmarked) [2′-O-butyl-cAMP]

- Ratio (IC50 Peak A/Peak B) [3]: <0.31
SMILES: CC1(C)C(=O)Nc2ccc(C3=NNC(=O)CC3)cc21 [Indolidan]

- competition with cGMP (2 μM) in binding of GST-cGB-PDE5 ([1]; FIG. 24): did not compete
SMILES: Nc1ccn([C@@H]2O[C@@H]3COP(=O)(O)O[C@H]3[C@H]2O)c(=O)n1 [cCMP]

- competition with cGMP (2 μM) in binding of GST-cGB-PDE5 ([1]; FIG. 24): can partially compete
SMILES: O=c1[nH]cnc2c1ncn2[C@@H]1O[C@@H]2COP(=O)(O)O[C@H]2[C@H]1O [Cyclic IMP]

- competition with cGMP (2 μM) in binding of GST-cGB-PDE5 ([1]; FIG. 24): did not compete
SMILES: CCCCOC1C2OP(=O)(O)OCC2OC1n1cnc2c(=O)[nH]c(N)nc21 (centres unmarked) [2′-O-butyl-cGMP]

- competition with cGMP (2 μM) in binding of GST-cGB-PDE5 ([1]; FIG. 24): can partially compete
SMILES: Nc1nc2c(nc(Br)n2[C@@H]2O[C@@H]3COP(=O)(O)O[C@H]3[C@H]2O)c(=O)[nH]1 [Compound 8-bromo-cGMP, 8-bromo-cGMP]

- competition with cGMP (2 μM) in binding of GST-cGB-PDE5 ([1]; FIG. 24): did not compete
SMILES: O=c1ccn([C@@H]2O[C@@H]3COP(=O)(O)O[C@H]3[C@H]2O)c(=O)[nH]1 [cUMP]

Second part, the molecule before the results:

SMILES: CC1=C(CC(=O)O)c2cc(F)ccc2/C1=C\c1ccc([S+](C)[O-])cc1 (centres unmarked) [sulindac]
- inhibition of premalignant lesions in mammary gland organ culture [2]: effectively inhibit the formation of premalignant lesions

SMILES: Nc1ncnc2c1ncn2[C@@H]1O[C@@H]2COP(=O)(O)O[C@H]2[C@H]1O [Cyclic AMP]
- competition with cGMP (2 μM) in binding of GST-cGB-PDE5 [1]: did not compete

SMILES: CCCOc1ccccc1-c1nc2nn[nH]c2c(=O)[nH]1 [Zaprinast]
- competition with cGMP (2 μM) in binding of GST-cGB-PDE5 ([1]; FIG. 24): None of the PDE5 inhibitors showed any competition

SMILES: CSc1ccc(/C=C2/C(C)=C(CC(=O)O)c3cc(F)ccc32)cc1 [Sulindac sulfide]
- IC50 [4]: 90 µM
- IC50 [5]: 45 µM
- cGMP PDE inhibitory activity, % Inhibition at 10 μM ([6]; 10 μM): 97%
- PDE Inhibition ([6]; qualitative activity profile): +++
- IC50 ([6]; read-out: IC50 for inhibition of cGMP PDE, cGMP PDE from HT-29 cells): 17 µM
- competition with cGMP (2 μM) in binding of GST-cGB-PDE5 ([1]; FIG. 24): None of the PDE5 inhibitors showed any competition
- Apoptosis [7]: +++
- effect on cAMP levels [8]: unaffected
- EC50 ([8]; Homo sapiens, 0.5 h, read-out: EC50 for increase of cGMP levels, HT-29 cells treated 30 minutes): 7.3 µM
- COX Inhibition ([9]; qualitative activity profile): ++++
- inhibition at 100 µM ([9]; read-out: Cyclooxygenase inhibitory activity, % Inhibition at 100 μM): 97%
- inhibition of premalignant lesions in mammary gland organ culture [2]: inactive
- IC50 [10]: 41 µM

SMILES: O=C([O-])C1CCN(c2nc(NCc3ccc4c(c3)OCO4)c3cc(Cl)ccc3n2)CC1.[Na+] [Compound E4021]
- competition with cGMP (2 μM) in binding of GST-cGB-PDE5 ([1]; FIG. 24): None of the PDE5 inhibitors showed any competition

SMILES: CCCc1nn(C)c2c(=O)[nH]c(-c3cc(S(=O)(=O)N4CCN(C)CC4)ccc3OCC)nc12 [Sildenafil]
- inhibition of activity of peak A [11]: inhibited activity of peak A

SMILES: COc1cc(C=C2C(C)=C(CC(=O)O)c3cc(F)ccc32)cc(OC)c1OC [Compound B, (Z)-5-Fluoro-2-methyl-1-(3,4,5-trimethoxybenzylidene)-3-acetic acid]
- competition with cGMP (2 μM) in binding of GST-cGB-PDE5 ([1]; FIG. 24): None of the PDE5 inhibitors showed any competition
- Apoptosis [7]: +++
- COX-I inhibition [9]: neither test compound B and E significantly inhibit COX-I

SMILES: COc1cc(/C=C2/C(C)=C(CC(=O)NCc3ccccc3)c3cc(F)ccc32)cc(OC)c1OC [Compound E, (Z)-5-Fluoro-2-methyl-1-(3,4,5-trimethoxybenzylidene)-3-indenylacetamide, N-benzyl]
- competition with cGMP (2 μM) in binding of GST-cGB-PDE5 ([1]; FIG. 24): None of the PDE5 inhibitors showed any competition
- Apoptosis [7]: ++++
- competitive (with cGMP) binding to PDE5 peak A [11]: does competitively (with cGMP) bind to PDE 5
- COX-I inhibition [9]: neither test compound B and E significantly inhibit COX-I
- competitive (with cGMP) binding to PDE peak B [3]: competitively (with cGMP) binds to PDE peak B
- Ratio (IC50 Peak A/Peak B) [3]: 1.0

SMILES: COc1ccc(C2CNC(=O)C2)cc1OC1CCCC1 (centres unmarked) [Rolipram]
- effect on cAMP levels [8]: increased cAMP
